Values joined by “and” are separate entries in the source; they are usually repeats but may differ in a detail not shown here. Equal entries are not always repeated.
What was measured:
[1] = Solubility in pH 4.7 acetate buffer; type: physicochemical; conditions: pH 4.7 acetate buffer (per USP), about 100 mg/mL
Procedure: The sodium α-methyl hydrocinnamate was added to pH 4.7 acetate buffer (per USP) at a concentration of about 100 mg/mL.

[2] = Solubility in citrate buffer containing 30% cyclodextrin; type: physicochemical
Procedure: Solubility of sodium a-methyl hydrocinnamate and buffer capacity of pH 5 citrate buffers prepared at four different buffer concentrations were evaluated as presented in Table 3.

[3] = test system: sub-lethally irradiated mouse model; test: Sub-lethally irradiated (6 Gy) mouse model, ANC; type: in vivo, mice; conditions: 500 mg/kg IP and 300 mg/kg IP after 6 Gy irradiation on day 0
Procedure: FIG. 9 is a graph of absolute neutrophil count (ANC) response to NaST7 (500 mg/kg IP and 300 mg/kg IP) after sub-lethal does of irradiation where mice were exposed to 6 Gy irradiation on day 0 and daily ST7 (enantiomer) was administered at two doses, beginning day 1.
In particular, absolute neutrophil count (ANC) increased after administration of NaST7 (500 mg/kg IP and 300 mg/kg IP) after sub-lethal does of irradiation (e.g., exposure to 6 Gy irradiation on day 0).

[4] = pH stability profile; type: physicochemical; conditions: for Assay, initial: unit assumed; for Assay, 1 Week 60° C. / Assay, 1 Week RT: in % (unit assumed)
Procedure: The pH stability profile was determined at pH values of 2, 5, 6, 7, 8, 9, and 13 respectively. A pH 7 phosphate buffer at a buffer concentration of 100 mM was initially prepared. Six different aliquots of this buffer were successively adjusted to pH values of 2, […], 6, 8, 9, and 13 using either 50% v/v phosphoric acid or 1N sodium hydroxide solution. Transferred 0.2 mL of sodium α-methyl hydrocinnamate stock solution and 1 mL of alcohol into a 10.0 mL volumetric flask was made up the volume with each of the seven buffer solutions to yield a final concentration of ˜4 mg/ml of sodium α-methyl hydrocinnamate.
Diluted 0.5 ml of each solution to 5 mL with diluent and analysed by HLPC per AM-013-RO to determine the initial concentration of sodium α-methyl hydrocinnamate. The solution was divided into two parts, one part was kept at room temperature (RT) and the other part was kept at 60° C. to evaluate the stability of sodium α-methyl hydrocinnamate.

[5] = pH solubility profile; type: physicochemical; conditions: 200 mg/mL
[6] = Solubility in phosphate buffer containing 20% cyclodextrin; type: physicochemical; conditions: for Final pH (upon addition of drug): 250 mg/mL
Procedure: Phosphate buffer solutions at a target pH of 7 were prepared at buffer concentrations of 0.5M, 0.25M, and ˜0.1M, respectively. The buffer solutions contained 20% cyclodextrin.

[7] = pH solubility profile; type: physicochemical
Procedure: Sodium a-methyl hydrocinnamate was added to DI water in excess to determine the saturation solubility in water. The samples (n=3) were shaken and vortexed for about two hours to dissolve sodium a-methyl hydrocinnamate. […] The pH of the saturated solution was determined to be about 10.4.
The pH of the saturated aqueous solution was successively adjusted to pH values of 8, 7, 6, and 5 using 50% v/v phosphoric acid to determine the saturation solubility of each pH. To determine the saturation solubility at each pH, the aqueous layer obtained at each pH was diluted further in water and analyzed by UV. The pH solubility data and plot are presented in Table 1 and FIG. 13A, respectively.

[8] = buffer pH 4*, pH 5* on addition of drug

With `CC(Cc1ccccc1)C(=O)[O-].[Na+]` (stereo not drawn) [sodium α-methyl hydrocinnamate] the “behaviour in acetate buffer” value [1] was “observed to separate from the aqueous layer”, the “change of pH of buffer solution upon addition of target concentration” value ([2]; 0.25M and 0.1M citrate buffer, 30% Trappsol) was 1.5-2 units and the “solubility in citrate buffers of high concentrations” value ([2]; 0.5M and 1 M) was “not soluble”. For the same molecule, the “Solubility (appearance)” value ([2]; citrate buffer 0.1 M, 30% Captisol, initial pH 4.9, 100 mg/ml) was “Clear”, the “Solubility (appearance)” value ([2]; citrate buffer 0.1 M, 30% Captisol, initial pH 4.9, 250 mg/ml) was “Clear” and the pH ([2]; citrate buffer 0.1 M, 30% Captisol, initial pH 4.9, after addition of drug) was 7.3. For the same molecule, the “Solubility (appearance)” value ([2]; citrate buffer 0.1 M, 30% Trappsol, initial pH 5.1, 100 mg/ml) was “Clear”, the “Solubility (appearance)” value ([2]; citrate buffer 0.1 M, 30% Trappsol, initial pH 5.1, 250 mg/ml) was “Clear” and the pH ([2]; citrate buffer 0.1 M, 30% Trappsol, initial pH 5.1, after addition of drug) was 7.0. The “Solubility (appearance)” value ([2]; citrate buffer 0.25 M, 30% Trappsol, initial pH 5.1, 100 mg/ml) was “Clear”, the “Solubility (appearance)” value ([2]; citrate buffer 0.25 M, 30% Trappsol, initial pH 5.1, 250 mg/ml) was “Clear” and the pH ([2]; citrate buffer 0.25 M, 30% Trappsol, initial pH 5.1, after addition of drug) was 6.5. For the same molecule, the “Solubility (appearance)” value ([2]; citrate buffer 1.0, 0.5, 0.25 M, 30% Captisol, initial pH 4.9, 100 mg/ml) was “Insoluble”, the “Solubility (appearance)” value ([2]; citrate buffer 1.0, 0.5 M, 30% Trappsol, initial pH 5.1, 100 mg/ml) was “Insoluble” and the “absolute neutrophil count (ANC)” value [3] was “increased”. The “pH, 1 Week 60° C.” value ([4]; buffer pH 2) was 1.9, the “pH, 1 Week RT” value ([4]; buffer pH 2) was 2.2 and the Assay, initial ([4]; buffer pH 2, ~4 mg/ml) was 95.8%. The “Assay, 1 Week 60° C.” value ([4]; buffer pH 2) was 81.2, the “Assay, 1 Week RT” value ([4]; buffer pH 2) was 99.8 and the “pH, 1 Week 60° C.” value [4, 8] was 5.1. The “pH, 1 Week RT” value [4, 8] was 5.3, the “Assay, 1 Week 60° C.” value [4, 8] was 102.3 and the “Assay, 1 Week RT” value [4, 8] was 102.9. For the same molecule, the Assay, initial [4, 8] was 98.8%, the “pH, 1 Week 60° C.” value ([4]; buffer pH 6) was 6.0 and the “pH, 1 Week RT” value ([4]; buffer pH 6) was 6.3. The “Assay, 1 Week 60° C.” value ([4]; buffer pH 6) was 102.9, the “Assay, 1 Week RT” value ([4]; buffer pH 6) was 102.9 and the Assay, initial ([4]; buffer pH 6) was 97.2%. The “pH, 1 Week 60° C.” value ([4]; buffer pH 7) was 6.9, the “pH, 1 Week RT” value ([4]; buffer pH 7) was 7.2 and the “Assay, 1 Week 60° C.” value ([4]; buffer pH 7) was 99.6. The “Assay, 1 Week RT” value ([4]; buffer pH 7) was 100.7, the Assay, initial ([4]; buffer pH 7) was 94% and the “pH, 1 Week 60° C.” value ([4]; buffer pH 8) was 8.1. For the same molecule, the “pH, 1 Week RT” value ([4]; buffer pH 8) was 8.3, the “Assay, 1 Week 60° C.” value ([4]; buffer pH 8) was 100.8 and the “Assay, 1 Week RT” value ([4]; buffer pH 8) was 100.4. For the same molecule, the Assay, initial ([4]; buffer pH 8) was 97.9%, the “pH, 1 Week 60° C.” value ([4]; buffer pH 9) was 9.0 and the “pH, 1 Week RT” value ([4]; buffer pH 9) was 9.2. For the same molecule, the “Assay, 1 Week 60° C.” value ([4]; buffer pH 9) was 101.6, the “Assay, 1 Week RT” value ([4]; buffer pH 9) was 102.2 and the Assay, initial ([4]; buffer pH 9) was 98.8%. The “pH, 1 Week 60° C.” value ([4]; buffer pH 13) was 12.7, the “pH, 1 Week RT” value ([4]; buffer pH 13) was 12.8 and the “Assay, 1 Week 60° C.” value ([4]; buffer pH 13) was 12.9. For the same molecule, the “Assay, 1 Week RT” value ([4]; buffer pH 13) was 11.2, the Assay, initial ([4]; buffer pH 13) was 23.2% and the degradation ([4]; pH 2 solution stored for 1 week at 60° C.) was “About 20%”. For the same molecule, the degradation ([4]; pH 13, initially) was “About 80%”, the degradation ([4]; pH 13, storage for 1 week at both room temperature and 60° C.) was 90% and the time stable ([4]; pH range of 2-9 at room temperature) was “at least 1 week”. The stability ([4]; pH range of 5 to 9 when stored at 60° C.) was “stable for at least one week”, the “pH of aqueous solution” value [5] was “about 10” and the “solubility in phosphate buffer solutions” value ([6]; 0.5M, 0.25M, ~0.1M, 20% cyclodextrin, target formulation concentration) was “observed to dissolve at the target formulation concentration”. The “Final pH (upon addition of drug)” value ([6]; phosphate buffer 0.25 M, 20% Captisol, initial pH 6.3) was 7.0, the “Final pH (upon addition of drug)” value ([6]; phosphate buffer 0.25 M, 20% Trappsol, initial pH 6.3) was 6.8 and the “Final pH (upon addition of drug)” value ([6]; phosphate buffer 0.5 M, 20% Captisol, initial pH 6.2) was 6.8. For the same molecule, the “Final pH (upon addition of drug)” value ([6]; phosphate buffer 0.5 M, 20% Trappsol, initial pH 6.3) was 6.7, the “Final pH (upon addition of drug)” value ([6]; phosphate buffer ~0.1 M, 20% Captisol, initial pH 6.8) was 7.9 and the “Final pH (upon addition of drug)” value ([6]; phosphate buffer ~0.1 M, 20% Trappsol, initial pH 6.8) was 7.6. The “saturation solubility in water” value ([7]; DI water, n=3) was 655 mg/mL, the “Solubility, mg/mL, Average” value ([7]; pH (average) 5) was 2.2 mg/mL and the “Solubility, mg/mL, Average” value ([7]; pH (average) 6) was 2.8 mg/mL. For the same molecule, the “Solubility, mg/mL, samples 1, 2, 3” value ([7]; pH (average) 6) was 2.7 mg/mL and 3.6 mg/mL and 2.2 mg/mL, the Appearance ([7]; pH (average) 7) was “Turbid solution” and the “Solubility, mg/mL, Average” value ([7]; pH (average) 7) was 559.0 mg/mL. The “Solubility, mg/mL, samples 1, 2, 3” value ([7]; pH (average) 7) was 653.5 mg/mL and 579.7 mg/mL and 443.8 mg/mL, the Appearance ([7]; pH (average) 8) was “Clear solution” and the “Solubility, mg/mL, Average” value ([7]; pH (average) 8) was 653.3 mg/mL. The “Solubility, mg/mL, samples 1, 2, 3” value ([7]; pH (average) 8) was 660.8 mg/mL and 663.6 mg/mL and 635.7 mg/mL, the Appearance ([7]; pH (average) 10) was “Clear solution” and the “Solubility, mg/mL, Average” value ([7]; pH (average) 10) was 655.1 mg/mL. For the same molecule, the “Solubility, mg/mL, samples 1, 2, 3” value ([7]; pH (average) 10) was 631.7 mg/mL and 700.4 mg/mL and 633.3 mg/mL, the “solubility in aqueous solution” value ([7]; pH values of 7 and below) was “almost insoluble” and the “pH of the saturated solution” value ([7]; water) was “about 10.4”.

Reference: US10111846B2, “S isomers of alpha-methyl-hydrocinnamic acid for the treatment of blood disorders” (priority 2009, dated 2018)
